By IC50 is commonly meant the point on the concentration scale where inhibition reaches its midpoint. What is called hepatocyte CLint is the capacity of the preparation to metabolise the compound, expressed as a volume cleared per time.

The nature of data set [1]: Liver microsome intrinsic clearance (LM CLint), rat. The data set is classed as in vitro ADME.
For data set [2], the target named is adenosine A2B receptor (Homo sapiens (Human), UniProt P29275). Briefly: Adenosine receptor activity assay (Table 1), A2B activity. The data set is classed as biochemical. To be noted: for IC50: read-out: Ave A2B cAMP IC50.
Chain of adenosine A2B receptor (P29275 whole entry): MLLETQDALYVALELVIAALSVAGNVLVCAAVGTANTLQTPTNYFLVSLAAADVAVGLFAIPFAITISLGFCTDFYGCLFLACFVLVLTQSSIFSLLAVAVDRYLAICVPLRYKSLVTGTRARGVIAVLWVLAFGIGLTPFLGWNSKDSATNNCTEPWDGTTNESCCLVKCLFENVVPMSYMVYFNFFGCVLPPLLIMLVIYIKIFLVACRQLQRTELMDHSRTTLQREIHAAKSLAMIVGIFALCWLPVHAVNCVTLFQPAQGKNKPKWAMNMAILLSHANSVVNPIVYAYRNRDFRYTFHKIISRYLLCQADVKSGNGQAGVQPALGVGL
Data set [3] in a line: Liver microsome intrinsic clearance (LM CLint), human. The data set is classed as in vitro ADME. On the technique in general: Liver microsomes are a subcellular fraction often used to study metabolism.
Data set [4] concerns the target adenosine A2A receptor (Homo sapiens (Human), UniProt P29274). Description: Adenosine receptor activity assay (Table 1), A2A activity. The data set is classed as biochemical. The settings on record: read-out: Ave A2A cAMP IC50.
Data set [5] concerns the target T1, adenosine A3 receptor (Homo sapiens (Human), UniProt P0DMS8). Briefly: Adenosine receptor activity assay (Table 1), A3 cAMP. The data set is classed as biochemical. The method, then:
(§1) Table 1. Compounds (e.g., Adenosine Receptor modulators) and activity assay results. The legend is as follows: A=<10 nM; B=10-50 nM; C=50-100 nM; D=100-500; and E=>500 nM. The ratio corresponds to the A2A activity to the A2B activity; or A2A/A2B.

Data set [6] deals with T2, adenosine A1 receptor (Homo sapiens (Human), UniProt P30542). Briefly: Adenosine receptor activity assay (Table 1), A1 cAMP. The data set is classed as biochemical. The method, then: as §1
T2 sequence (P30542 whole entry): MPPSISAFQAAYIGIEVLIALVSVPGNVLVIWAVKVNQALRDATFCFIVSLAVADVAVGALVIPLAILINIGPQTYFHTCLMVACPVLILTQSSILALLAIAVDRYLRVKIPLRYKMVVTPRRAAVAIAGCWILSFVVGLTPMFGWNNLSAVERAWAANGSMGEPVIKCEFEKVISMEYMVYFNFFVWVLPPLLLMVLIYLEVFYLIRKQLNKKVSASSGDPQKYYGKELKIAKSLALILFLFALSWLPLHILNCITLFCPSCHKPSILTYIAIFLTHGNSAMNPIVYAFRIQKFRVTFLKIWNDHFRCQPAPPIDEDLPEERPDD
Data set [7] concerns the target T2, adenosine A1 receptor. The data set is described as above. The data set is classed as cell-based.
The test system of data set [8] is CYP 450 (isoform not given). Description: CYP450 inhibition at 10 μM. The data set is classed as in vitro ADME. The settings on record: read-out: CYP 450 % INH @ 10 μM.
Data set [9] in a line: Hepatocyte intrinsic clearance, rat. The data set is classed as in vitro ADME. To be noted: hepatocytes.
Data set [10] concerns the target T1, adenosine A3 receptor. Description: Adenosine receptor activity assay (Table 1), A3 cAMP. The data set is classed as cell-based.
A short description of data set [11]: Hepatocyte intrinsic clearance, human. The data set is classed as in vitro ADME. To be noted: hepatocytes.
Setting [12] is: A2A activity to the A2B activity, A2A/A2B.
The mark [13] stands for this setting: A2A activity to A2B activity (A2A/A2B).

Structures are written as SMILES. Where two headings read alike, the source gives them in different places.

Chain of adenosine A2A receptor (P29274 whole entry): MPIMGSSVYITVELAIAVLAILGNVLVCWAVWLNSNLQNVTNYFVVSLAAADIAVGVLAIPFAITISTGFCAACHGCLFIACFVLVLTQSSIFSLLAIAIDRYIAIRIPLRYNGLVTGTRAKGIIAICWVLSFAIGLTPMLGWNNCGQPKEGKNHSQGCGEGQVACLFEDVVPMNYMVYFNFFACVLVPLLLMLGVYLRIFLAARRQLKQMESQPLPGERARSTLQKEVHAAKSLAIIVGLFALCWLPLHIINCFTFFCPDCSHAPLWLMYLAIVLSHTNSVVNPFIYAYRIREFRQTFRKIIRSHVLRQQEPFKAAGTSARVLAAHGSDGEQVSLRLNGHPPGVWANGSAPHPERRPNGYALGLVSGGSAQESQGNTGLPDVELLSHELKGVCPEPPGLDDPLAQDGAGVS
T1 sequence (P0DMS8 whole entry): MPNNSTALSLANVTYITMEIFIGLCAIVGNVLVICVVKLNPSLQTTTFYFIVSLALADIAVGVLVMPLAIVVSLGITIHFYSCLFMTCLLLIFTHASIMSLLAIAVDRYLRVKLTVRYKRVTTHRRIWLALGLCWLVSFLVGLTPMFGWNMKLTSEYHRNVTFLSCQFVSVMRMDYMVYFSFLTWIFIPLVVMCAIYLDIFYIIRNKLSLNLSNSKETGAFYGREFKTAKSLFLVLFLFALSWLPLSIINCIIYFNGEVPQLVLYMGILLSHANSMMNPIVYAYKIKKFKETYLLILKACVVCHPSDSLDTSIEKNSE

With `CC(=O)Nc1ccc(CCNC(=O)c2nc(N[C@@H](C)c3cncc(F)c3)nc3ccsc23)cc1` [Example Z421, (S)—N-(4-Acetamidophenethyl)-2-((1-(5-fluoropyridin-3-yl)ethyl)amino)thieno[3,2-d]pyrimidine-4-carboxamide], the “LM CLint” value in data set [1] amounted to 85.16 μL/min/mg/protein; in [3], 228.45 μL/min/mg/protein. For the same compound, the IC50 in data set [2] was 10 to 50 nM.

Consider `Cc1csc2c(C(=O)N3CCC3)nc(N[C@@H](C)c3cncc(F)c3)nc12` [Example Z415, (S)-Azetidin-1-yl(2-((1-(5-fluoropyridin-3-yl)ethyl)amino)-7-methylthieno[3,2-d]pyrimidin-4-yl)methanone], for which the IC50 was 10 to 50 nM in data set [4], less than 10 nM in [2], greater than 500 nM in data set [5] and 50 to 100 nM in [6]. The “LM CLint” value is given as 56.26 μL/min/mg/protein in data set [1] and 82.97 μL/min/mg/protein in [3]. In addition, the Ratio in data set [2] (setting [12]) is given as 21.01.

Turning to `COc1ccc([C@@H](C)Nc2nc(C(=O)NCc3ccc(OC)nc3)c3sccc3n2)cc1` [Example Z465, (R)-2-((1-(4-Methoxyphenyl)ethyl)amino)-N-((6-methoxypyridin-3-yl)methyl)thieno[3,2-d]pyrimidine-4-carboxamide], the IC50 in data set [4] was 10 to 50 nM; in data set [2] it was greater than 500 nM; in data set [5], greater than 500 nM; in [6], greater than 500 nM. In addition, the “LM CLint” value was 75.91 μL/min/mg/protein in data set [1] and 35.20 μL/min/mg/protein in data set [3]. Also, the Ratio in data set [2] (setting [12]) is listed as 0.22.

Regarding `C[C@H](Nc1nc(C(=O)N2CC(CN)C2)c2sccc2n1)c1cncc(F)c1` [Example Z419, (S)-(3-(Aminomethyl)azetidin-1-yl)(2-((1-(5-fluoropyridin-3-yl)ethyl)amino)thieno[3,2-d]pyrimidin-4-yl)methanone], the “LM CLint” value is 9.09 μL/min/mg/protein in data set [1] and 0.69 μL/min/mg/protein in [3]. In addition, the 50% inhibitory concentration (IC50) in [2] lay within 10 to 50 nM.

In the case of `C[C@H](Nc1nc(C(=O)N2CC(N)C2)c2sccc2n1)c1cncc(F)c1` [Example Z401, (S)-(3-Aminoazetidin-1-yl)(2-((1-(5-fluoropyridin-3-yl)ethyl)amino)thieno[3,2-d]pyrimidin-4-yl)methanone], the “LM CLint” value in data set [1] is given as 5.32 μL/min/mg/protein; in [3] it was 2.64 μL/min/mg/protein. For the same compound, the concentration for half-maximal inhibition (IC50) in data set [2] lay in the range of 10 to 50 nM.

In the case of `COc1cccc(CNC(=O)c2nc(N[C@@H](C)c3ccccn3)nc3c(C)csc23)n1` [Example Z450, (S)—N-((6-Methoxypyridin-2-yl)methyl)-7-methyl-2-((1-(pyridin-2-yl)ethyl)amino)thieno[3,2-d]pyrimidine-4-carboxamide], the IC50 in data set [4] was 10 to 50 nM; in data set [2], 10 to 50 nM; in data set [5] it was 50 to 100 nM; in data set [6], greater than 500 nM. The entries for the “LM CLint” value in [1] and in data set [3] were 314.14 μL/min/mg/protein and 82.93 μL/min/mg/protein, respectively. Also, the Ratio in [2] (setting [12]) was found to be 0.64.

In the case of `CNc1cc2nc(N[C@@H](C)c3cncc(F)c3)nc(C(=O)N3CCC3)c2s1` [Example Z211, (S)-Azetidin-1-yl(2-((1-(5-fluoropyridin-3-yl)ethyl)amino)-6-(methylamino)thieno[3,2-d]pyrimidin-4-yl)methanone], the 50% inhibitory concentration (IC50) in [4] is 100 to 500 nM; in data set [7], greater than 500 nM; in data set [2], less than 10 nM; in data set [10] it was 50 to 100 nM. The Ratio in data set [2] (setting [13]) is 201.82. In addition, in data set [8], the inhibition at 10 µM came out at 67%. The intrinsic metabolic clearance (hepatocyte CLint) in data set [9] amounted to 53.2 µL/min/1e6 cells; in [11], 15.8 µL/min/1e6 cells.

As for `Cc1cc2nc(N[C@@H](C)c3ccccn3)nc(C(=O)N3CC[C@@H](O)C3)c2s1` [Example Z298, ((R)-3-Hydroxypyrrolidin-1-yl)(6-methyl-2-(((S)-1-(pyridin-2-yl)ethyl)amino)thieno[3,2-d]pyrimidin-4-yl)methanone], the 50% inhibitory concentration (IC50) in data set [4] is 100 to 500 nM; in [7] it was greater than 500 nM; in data set [2] it was less than 10 nM; in data set [10], greater than 500 nM. The Ratio in data set [2] (setting [13]) was found to be 64.00. Moreover, the inhibition at 10 µM in data set [8] was -13.9%. The figures for the intrinsic metabolic clearance (hepatocyte CLint) in data set [9] and in data set [11] were 18.8 µL/min/1e6 cells and 5.35 µL/min/1e6 cells, respectively.

On to `C[C@H](Nc1nc(C(=O)N2CC(NC(=O)C3CC3)C2)c2sccc2n1)c1cncc(F)c1` [Example Z517, (S)—N-(1-(2-((1-(5-Fluoropyridin-3-yl)ethyl)amino)thieno[3,2-d]pyrimidine-4-carbonyl)azetidin-3-yl)cyclopropanecarboxamide], for which the IC50 in data set [4] was 10 to 50 nM; in [2], less than 10 nM; in [5], greater than 500 nM; in data set [6], greater than 500 nM. In addition, the “LM CLint” value is 16.99 μL/min/mg/protein in data set [1] and 6.17 μL/min/mg/protein in [3]. Further, the Ratio in [2] (setting [12]) was found to be 4.68.

Turning to `Cc1cc2nc(N[C@@H](C)c3cncc(F)c3)nc(C(=O)N3CC(N)C3)c2s1` [Example Z430, (S)-(3-Aminoazetidin-1-yl)(2-((1-(5-fluoropyridin-3-yl)ethyl)amino)-6-methylthieno[3,2-d]pyrimidin-4-yl)methanone], the IC50 in [4] is greater than 500 nM; in [2] it was less than 10 nM; in data set [5], greater than 500 nM; in [6], greater than 500 nM. Also, the “LM CLint” value in [1] was determined as 4.83 μL/min/mg/protein; in [3], 5.77 μL/min/mg/protein. For the same compound, in [2] (setting [12]), the Ratio is recorded as 177.08.

For the compound `Cc1cc2nc(N[C@@H](C)c3ccccn3)nc(C(=O)N3CC[C@H](O)C3)c2s1` [Example Z282, ((S)-3-Hydroxypyrrolidin-1-yl)(6-methyl-2-(((S)-1-(pyridin-2-yl)ethyl)amino)thieno[3,2-d]pyrimidin-4-yl)methanone], the IC50 in data set [4] was greater than 500 nM; in data set [7], greater than 500 nM; in data set [2], 10 to 50 nM; in data set [10] it was greater than 500 nM. For the same compound, in data set [2] (setting [13]), the Ratio came out at 77.76. In data set [8], the inhibition at 10 µM was -18.8%. Moreover, the values for the intrinsic clearance (hepatocyte CLint) in data set [9] and in [11] were 17.2 µL/min/1e6 cells and 4.11 µL/min/1e6 cells, respectively.

As for `C[C@H](Nc1nc(C(=O)N2CCCC2)c2sccc2n1)c1cncc(Cl)c1` [Example Z231, (S)-(2-((1-(5-Chloropyridin-3-yl)ethyl)amino)thieno[3,2-d]pyrimidin-4-yl)(pyrrolidin-1-yl)methanone], the half-inhibitory concentration (IC50) in data set [4] was 100 to 500 nM; in [7] it was greater than 500 nM; in data set [2] it was less than 10 nM; in [10], greater than 500 nM. Moreover, the Ratio in data set [2] (setting [13]) stood at 88.17. In addition, the inhibition at 10 µM in data set [8] amounted to 75%. The hepatocyte CLint in data set [9] turned out to be 41.1 µL/min/1e6 cells; in [11] it was 72.7 µL/min/1e6 cells.

As to `Cc1cc2nc(N[C@@H](C)c3cncc(F)c3)nc(C(=O)NCC[C@H]3CCNC3)c2s1` [Example Z463, 2-(((S)-1-(5-Fluoropyridin-3-yl)ethyl)amino)-6-methyl-N-(2-((R)-pyrrolidin-3-yl)ethyl)thieno[3,2-d]pyrimidine-4-carboxamide], the IC50 was greater than 500 nM in data set [4], 10 to 50 nM in data set [2], greater than 500 nM in data set [5] and greater than 500 nM in data set [6]. In addition, the results for the “LM CLint” value in data set [1] and in data set [3] were 48.47 μL/min/mg/protein and 4.85 μL/min/mg/protein, respectively. For the same compound, in data set [2] (setting [12]), the Ratio amounted to 159.87.

For the compound `Cc1cc2nc(N[C@@H](C)c3cncc(F)c3)nc(C(=O)N3CC[C@H](N)C3)c2s1` [Example Z412, ((S)-3-Aminopyrrolidin-1-yl)(2-(((S)-1-(5-fluoropyridin-3-yl)ethyl)amino)-6-methylthieno[3,2-d]pyrimidin-4-yl)methanone], the IC50 in data set [4] is greater than 500 nM; in [2], 10 to 50 nM; in [5] it was greater than 500 nM; in data set [6] it was greater than 500 nM. The “LM CLint” value in [1] amounted to 26.34 μL/min/mg/protein; in [3] it was 0.15 μL/min/mg/protein. The Ratio in [2] (setting [12]) is given as 166.77.

For `Cc1cc2nc(N[C@@H](C)c3cccnc3)nc(C(=O)N3CCCC3)c2s1` [Example Z213, (S)-(6-Methyl-2-((1-(pyridin-3-yl)ethyl)amino)thieno[3,2-d]pyrimidin-4-yl)(pyrrolidin-1-yl)methanone], the concentration for half-maximal inhibition (IC50) in [4] was 100 to 500 nM; in data set [7] it was greater than 500 nM; in [2], less than 10 nM; in data set [10], greater than 500 nM. In addition, the Ratio in data set [2] (setting [13]) was 127.82. Also, the inhibition at 10 µM in data set [8] was 90%. Also, the intrinsic metabolic clearance (hepatocyte CLint) in data set [9] is 25.3 µL/min/1e6 cells; in [11], 59.6 µL/min/1e6 cells.

Values taken from patent publication US11254686B1 (Corvus Pharmaceuticals, Inc., priority 2017, dated 2022).
